Assay results reported in PubChem BioAssay (NCI).
Where “and” joins values, the source holds several entries; their conditions need not be identical. Identical values can stand only once.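 Five concentrations, 48 hours, 96-well plates. GI50 is the concentration that inhibits growth by half. At the TGI there is no net growth.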 Where a SMILES comes first, the peptide text is derived from it. The star is where a group is joined. Cbz = O=C(OCc1ccccc1)*; OBn = c1ccc(CO*)cc1

Experiments:
Test in all cases: DTP human tumour cell line panel, 48 h
OVCAR-3 ovarian = test system: OVCAR-3 ovarian
UACC-62 melanoma = test system: UACC-62 melanoma
SNB-19 CNS = test system: SNB-19 CNS
MOLT-4 leukemia = test system: MOLT-4 leukemia
LOX IMVI melanoma = test system: LOX IMVI melanoma
NCI-H460 lung = test system: NCI-H460 lung
NCI-H23 lung = test system: NCI-H23 lung
NCI-H226 lung = test system: NCI-H226 lung
HS 578T breast = test system: HS 578T breast

SMILES	TGI (OVCAR-3 ovarian)	TGI (UACC-62 melanoma)	TGI (SNB-19 CNS)	TGI (MOLT-4 leukemia)	TGI (LOX IMVI melanoma)	TGI (NCI-H460 lung)	TGI (NCI-H23 lung)	TGI (NCI-H226 lung)	TGI (HS 578T breast)	GI50 (UACC-62 melanoma)	GI50 (SNB-19 CNS)	GI50 (MOLT-4 leukemia)	GI50 (NCI-H460 lung)	GI50 (NCI-H23 lung)	GI50 (NCI-H226 lung)	GI50 (HS 578T breast)
N#CC1(C#N)C2CCCCC23OC(=N)C1(C#N)C(c1ccco1)O3 (centres undefined)	33.5 µM	36.4 µM	> 100 µM	> 100 µM	37.5 µM	> 100 µM	70.5 µM	> 100 µM	70.4 µM							
COc1cc2cc(C(=O)N3CC(CCl)c4c3cc(NC(=O)C(C)(C)c3ccccc3[N+](=O)[O-])c3ccccc43)[nH]c2c(OC)c1OC (centres undefined)	222 µM				6.86 µM	1.64 µM and 15.5 µM		50 µM and 281 µM		25.4 µM	303 µM	33.7 µM	0.825 µM	8.67 µM	118 µM	270 µM
O=S1(=O)c2cnccc2NC(=NCc2cccc3ccccc23)N1c1ccccc1	> 100 µM	> 100 µM	> 100 µM	> 100 µM	> 100 µM	> 100 µM	> 100 µM	> 100 µM	> 100 µM							
NC(=O)C(Nc1c(Cl)cccc1Cl)c1cc2cc(Br)ccc2nc1Cl (centres undefined)	> 100 µM	> 100 µM	> 100 µM	57.6 µM	> 100 µM	> 100 µM	> 100 µM	> 100 µM	> 100 µM							
Cn1nc(Cc2ccc(Cl)cc2)n(N)c1=O		> 100 µM	> 100 µM	> 100 µM		> 100 µM	> 100 µM	> 100 µM								
Clc1cccc(Cl)c1C=NC12CC3CC(CC(C3)C1)C2	> 10 µM	> 10 µM	> 10 µM	> 10 µM	> 10 µM	> 10 µM	> 10 µM	> 10 µM	> 10 µM							
CC(C)OP(=O)(OC(C)C)C(C(C)C)N(C)/C(N)=N\C1=NC(C(F)(F)F)(C(F)(F)F)N=C(C(C(F)(F)F)C(F)(F)F)O1 (centres undefined)	31.6 µM	4.7 µM	44.9 µM	4.78 µM	3.77 µM	9.91 µM	14.6 µM	5.05 µM	> 100 µM							
O=c1[nH]c(=O)n(C2OC(CO)C(O)C(F)C2O)cc1F (centres undefined)	> 100 µM	> 100 µM	> 100 µM	62 µM	> 100 µM	> 100 µM	> 100 µM	> 100 µM	> 100 µM							
O=C(NC(C(F)(F)F)(C(F)(F)F)P(=O)(c1ccccc1)c1ccccc1)C(C(F)(F)F)C(F)(F)F	69.7 µM	> 100 µM	> 100 µM	> 100 µM	58.9 µM	> 100 µM	64.2 µM	> 100 µM	> 100 µM							
COC(=O)CNC(=O)C(C)NC(=O)C(CC(=O)OCc1ccccc1)NC(=O)OCc1ccccc1 (stereo not drawn) (Cbz-Asp(OBn)-Ala-Gly-OMe; configuration not given here)	> 100 µM	> 100 µM	> 100 µM	> 100 µM		> 100 µM	> 100 µM	> 100 µM	> 100 µM							
COC(=O)N1C[C@@]2(C=CC3(CC2)OCCO3)c2ccccc21	> 100 µM	> 100 µM	> 100 µM	> 100 µM	> 100 µM	> 100 µM	> 100 µM									
O=C1c2cc3c(cc2CC12Cc1cc4c(cc1C2=O)CCCC4)CCCC3	93.7 µM	> 100 µM	> 100 µM	> 100 µM	> 100 µM	> 100 µM	> 100 µM	> 100 µM	72.5 µM							
